Assay results as given in US10350187B2, “Methods and composition for suppression of pathogenic bacterial growth, fungal growth, or microbial growth in or on skin” (priority 2017, dated 2019).

How the values were obtained:
[1] = system: M. restricta MYA-4611; experiment: M. restricta growth on solid media with composition and individual component supplementation (Example 3); settings: individual component supplementation, after 5 days
[2] = system: M. globosa; experiment: M. globosa growth in liquid MLNB media (Example 3); assay type: cell-based
Procedure: (§1) At appropriate time intervals (0 h, 24 h, 48 h, 72 h, and 168 h) 1 mL aliquots of the cell suspension were withdrawn and plated on MLNA. All the experiments were performed in duplicate.

[3] = system: M. globosa; experiment: M. globosa growth on solid media with composition and individual component supplementation (Example 3); settings: individual component supplementation, after 5 days
[4] = system: M. restricta MYA-4611; experiment: M. restricta growth in liquid MLNB media (Example 3); assay type: cell-based
Procedure: as §1

For `NC(=O)c1cccnc1` [Niacinamide, niacinamide, reference compound], the “growth on solid media” value ([1]; 0.5% niacinamide) was “support some growth”, the “M. globosa growth in liquid MLNB media” value ([2]; 0.5% Niacinamide, t = 24 h) was 2 cfu/mL and the “M. globosa growth in liquid MLNB media” value ([2]; 0.5% Niacinamide, t = 48 h) was 0 cfu/mL. For the same compound, the “M. globosa growth in liquid MLNB media” value ([2]; 0.5% Niacinamide, t = 72 h) was 0 cfu/mL, the “M. globosa growth in liquid MLNB media” value ([2]; 0.5% Niacinamide, t = 168 h) was 0 cfu/mL and the “growth on solid media” value ([3]; 0.5% niacinamide) was “support some growth”. For the same compound, the “M. restricta growth in liquid MLNB media” value ([4]; 0.5% Niacinamide, t = 24 h) was 20 cfu/mL, the “M. restricta growth in liquid MLNB media” value ([4]; 0.5% Niacinamide, t = 48 h) was 5 cfu/mL and the “M. restricta growth in liquid MLNB media” value ([4]; 0.5% Niacinamide, t = 72 h) was 0 cfu/mL. The “M. restricta growth in liquid MLNB media” value ([4]; 0.5% Niacinamide, t = 168 h) was 0 cfu/mL.
In the case of conjugated linoleic acid [CLA], the “growth on solid media” value ([1]; 1.5% CLA) is reported as “support some growth”, the “M. globosa growth in liquid MLNB media” value ([2]; 1.5% CLA, t = 24 h) is reported as 2 cfu/mL and the “M. globosa growth in liquid MLNB media” value ([2]; 1.5% CLA, t = 48 h) is reported as 0 cfu/mL. For the same compound, the “M. globosa growth in liquid MLNB media” value ([2]; 1.5% CLA, t = 72 h) was 0 cfu/mL, the “M. globosa growth in liquid MLNB media” value ([2]; 1.5% CLA, t = 168 h) was 0 cfu/mL and the “growth on solid media” value ([3]; 1.5% CLA) was “support some growth”. The “M. restricta growth in liquid MLNB media” value ([4]; 1.5% CLA, t = 24 h) was 7 cfu/mL, the “M. restricta growth in liquid MLNB media” value ([4]; 1.5% CLA, t = 48 h) was 0 cfu/mL and the “M. restricta growth in liquid MLNB media” value ([4]; 1.5% CLA, t = 72 h) was 0 cfu/mL. The “M. restricta growth in liquid MLNB media” value ([4]; 1.5% CLA, t = 168 h) was 0 cfu/mL.
With `N[C@@H](CC(=O)O)C(=O)O` [L-Asp, L-aspartic acid] the “growth on solid media” value ([1]; 0.46% L-Asp) was “support some growth”, the “M. globosa growth in liquid MLNB media” value ([2]; 0.46% L-Asp, t = 24 h) was 14 cfu/mL and the “M. globosa growth in liquid MLNB media” value ([2]; 0.46% L-Asp, t = 48 h) was 10 cfu/mL. The “M. globosa growth in liquid MLNB media” value ([2]; 0.46% L-Asp, t = 72 h) was 6 cfu/mL, the “M. globosa growth in liquid MLNB media” value ([2]; 0.46% L-Asp, t = 168 h) was 1 cfu/mL and the “growth on solid media” value ([3]; 0.46% L-Asp) was “support some growth”. The “M. restricta growth in liquid MLNB media” value ([4]; 0.46% L-Asp, t = 24 h) was 15 cfu/mL, the “M. restricta growth in liquid MLNB media” value ([4]; 0.46% L-Asp, t = 48 h) was 11 cfu/mL and the “M. restricta growth in liquid MLNB media” value ([4]; 0.46% L-Asp, t = 72 h) was 10 cfu/mL. For the same compound, the “M. restricta growth in liquid MLNB media” value ([4]; 0.46% L-Asp, t = 168 h) was 14 cfu/mL.
